From paper PMC7863742, “Sensitive Fluorescence Assay for the Detection of Alkaline Phosphatase Based on a Cu^2+-Thiamine System” (Sensors (Basel, Switzerland), 2021)

Target: Alkaline phosphatase (ALP)
Assay: Cu2+-thiamine fluorescence assay of ALP hydrolysis of ascorbic acid 2-phosphate
Assay type: biochemical

Question: For `[O]=[V]([OH])([OH])[OH]` [Na3VO4], which IC50 is on record?
Answer: 262 µM
